{"source": "patent US8895512B2", "about": "“Composition for improving brain function and method for improving brain function” (Calpis Co., Ltd., priority 2010, dated 2014)", "key": {"[1]": {"system": "scopolamine-induced amnesia", "details": "male ddY mice; single oral dose of 5000 nmol/kg weight (1300 μg/kg) 60 min before Y-shaped maze test; scopolamine 1 mg/kg s.c. 30 min before test", "procedure": "Water (control), scopolamine alone, or 500 nmol/kg weight or 5000 nmol/kg weight of FP together with scopolamine, was administered to mice, and their respective prophylactic effects against amnesia were evaluated in accordance with a method described in Example 1.\nMale mice (n=15) of the ddY strain (approximately 7-week old) were used, and they took food and water ad lib. Test substances used were 500 mol/kg weight (130 μg/kg weight) or 5000 nmol/kg weight (1300 μg/kg weight) of FP. The test substances were administered to the mice once orally 60 minutes before the execution of a Y-shaped maze test for evaluation of spontaneous alternation behavior. […] The sequence of the arms each of the mice entered was recorded. The number of entries by each of the mice for each of the arms during the measurement time was counted to be the total number of entries. […] The percentage of spontaneous alternation behavior was calculated by dividing the number of spontaneous alternation behavior by a number obtained by subtracting 2 from the total number of entries, and multiplying a resultant number by 100. […] The measured values were expressed in the form of mean±standard error for each group. A significant difference between the control group and the scopolamine control group was calculated using Student's t-test. […]"}, "ACE": {"target": "ACE (Homo sapiens, UniProt P12821)", "sequence (P12821 30-1306, species assumed)": "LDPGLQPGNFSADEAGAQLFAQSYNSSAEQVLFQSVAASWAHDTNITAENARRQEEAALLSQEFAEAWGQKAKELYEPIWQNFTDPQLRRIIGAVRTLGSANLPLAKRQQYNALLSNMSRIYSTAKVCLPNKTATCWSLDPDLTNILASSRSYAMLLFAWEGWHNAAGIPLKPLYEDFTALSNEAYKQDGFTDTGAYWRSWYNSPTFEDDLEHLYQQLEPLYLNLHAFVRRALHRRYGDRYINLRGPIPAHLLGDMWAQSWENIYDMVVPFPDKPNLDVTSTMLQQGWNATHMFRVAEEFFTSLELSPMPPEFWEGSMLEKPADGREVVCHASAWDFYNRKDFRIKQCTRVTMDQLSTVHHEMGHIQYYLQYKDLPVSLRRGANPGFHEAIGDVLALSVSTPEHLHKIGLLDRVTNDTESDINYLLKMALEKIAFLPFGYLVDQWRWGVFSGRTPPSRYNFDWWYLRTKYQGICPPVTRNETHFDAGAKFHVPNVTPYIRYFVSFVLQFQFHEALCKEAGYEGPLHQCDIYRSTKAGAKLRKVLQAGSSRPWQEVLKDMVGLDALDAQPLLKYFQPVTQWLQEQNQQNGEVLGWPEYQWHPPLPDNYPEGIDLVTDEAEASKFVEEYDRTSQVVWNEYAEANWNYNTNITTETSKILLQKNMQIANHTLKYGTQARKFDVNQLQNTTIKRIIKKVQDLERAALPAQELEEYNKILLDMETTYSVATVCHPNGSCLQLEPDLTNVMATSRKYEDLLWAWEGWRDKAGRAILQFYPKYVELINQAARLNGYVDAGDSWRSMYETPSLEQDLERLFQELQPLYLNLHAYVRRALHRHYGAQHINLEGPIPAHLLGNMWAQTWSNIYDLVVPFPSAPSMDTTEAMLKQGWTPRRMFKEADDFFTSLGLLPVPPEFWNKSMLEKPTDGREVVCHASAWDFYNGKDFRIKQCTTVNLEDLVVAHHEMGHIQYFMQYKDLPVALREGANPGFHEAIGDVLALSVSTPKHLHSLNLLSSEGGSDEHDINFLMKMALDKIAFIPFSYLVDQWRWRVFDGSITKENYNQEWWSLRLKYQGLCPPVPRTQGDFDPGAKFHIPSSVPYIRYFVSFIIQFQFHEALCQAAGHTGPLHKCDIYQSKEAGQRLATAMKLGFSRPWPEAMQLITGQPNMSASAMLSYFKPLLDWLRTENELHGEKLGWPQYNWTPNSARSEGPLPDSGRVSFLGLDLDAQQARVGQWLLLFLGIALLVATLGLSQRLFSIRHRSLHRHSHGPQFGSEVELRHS", "details": "reported in reference 3; cited from earlier work"}}}
{"substance": "Phe-Pro", "values": [{"measurement": "prophylactic activity against amnesia (percentage of spontaneous alternation behavior)", "setting": "[1]", "value": "had a prophylactic activity against amnesia"}, {"measurement": "hypotensive lowering activity based on ACE inhibitory activity", "setting": "ACE", "value": "hypotensive lowering activity based on ACE inhibitory activity has been reported"}]}
